Test results from patent publication US20180098977A1, “SCALABLE MICROPARTICULATE FORMULATIONS CONTAINING POLYMORPHIC NIMODIPINE FORM 2 PREPARED BY A SOLVENT EVAPORATION PROCESS” (Edge Therapeutics, Inc., priority 2016, published 2018).

Legend:
[1] = at 25° C.; cited from earlier work
[2] = tested on: subjects with an aneurysmal subarachnoid hemorrhage (aSAH); experiment: NEWTON Phase 1/2 study, efficacy and safety; type: in vivo, human
Text: NEWTON (Nimodipine microparticles to Enhance recovery While reducing TOxicity after subarachNoid hemorrhage) was a multicenter, randomized, controlled, open-label Phase 1/2 study evaluating the safety, tolerability and pharmacokinetics of escalating doses of a polymeric nimodipine microparticle suspended in a diluent of hyaluronic acid (EG-1962) compared to the current standard of care, oral nimodipine, in subjects with an aneurysmal subarachnoid hemorrhage (aSAH).
Fifty-four patients were randomized to receive EG-1962 and 18 patients were randomized to receive oral nimodipine.
The primary endpoint was to establish the maximum tolerated dose, which has been determined to be 800 mg. […] The secondary endpoint of characterizing the pharmacokinetics of EG-1962 was also met. The steady-state plasma concentration measured in patients treated with EG-1962 was below 30 ng/ml, the level of plasma concentration observed to cause systemic hypotension.

Compound	solubility in water [1]	patients who achieved a favorable outcome (scores of 6-8, Extended Glasgow Outcome Score [GOSE]) ([2]; at 90 days, pooled efficacy results)	patients who experienced drug-related hypotension ([2]; human, in vivo)
COCCOC(=O)C1=C(C)NC(C)=C(C(=O)OC(C)C)C1c1cccc([N+](=O)[O-])c1 (racemic) [Mod I, Nimodipine]	0.036±0.007 mg 100 mL^−1	–	–
COCCOC(=O)C1=C(C)NC(C)=C(C(=O)OC(C)C)C1c1cccc([N+](=O)[O-])c1 (stereo not shown) [nimodipine, isopropyl(2-methoxyethyl)-1,4-dihydro-2,6-dimethyl-4-(3-nitrophenyl)-3,5-pyridinedicarboxylate]	–	28%	17%
COCCOC(=O)C1=C(C)NC(C)=C(C(=O)OC(C)C)C1c1cccc([N+](=O)[O-])c1 (stereo not shown) [Mod II, Nimodipine]	0.018±0.004 mg 100 mL^−1	–	–
